One may read the IC50 as the point on the concentration scale where inhibition reaches its midpoint.

The structures appear in SMILES notation.

For this assay, the target named is T1, Recombinant human renin (Homo sapiens, UniProt P00797).
T1 construct: isolate the active form (residues 67-406); made in house; host or cells: FreeStyle 293-F cells (transient expression of pcDNA3.1(+)/hREN)
T1 sequence (P00797 67-406): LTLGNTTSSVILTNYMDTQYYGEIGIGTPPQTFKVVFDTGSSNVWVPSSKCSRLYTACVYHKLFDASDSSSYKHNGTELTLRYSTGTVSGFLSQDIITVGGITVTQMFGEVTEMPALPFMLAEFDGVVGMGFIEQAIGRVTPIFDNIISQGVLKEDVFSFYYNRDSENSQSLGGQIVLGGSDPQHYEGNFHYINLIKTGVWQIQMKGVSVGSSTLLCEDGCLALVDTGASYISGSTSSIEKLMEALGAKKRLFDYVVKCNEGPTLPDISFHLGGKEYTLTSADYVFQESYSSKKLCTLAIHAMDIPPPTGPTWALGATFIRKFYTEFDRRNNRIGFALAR
Nature of the assay: In vitro enzymatic activity assay of renin inhibitors (fluorogenic peptide substrate). The format is biochemical. As to conditions: read-out: IC50 of Exemplified Compounds Against Renin. In a few lines: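 Recombinant human renin (3 nM final) pre-incubated 10 min at 37 °C with compounds in pH 7.4 Hepes/EDTA/DTT/0.1 mg/mL BSA/Brij35 buffer (optionally plus 2% BSA), 5% DMSO final; fluorogenic QXL520/HiLyteFluo488 peptide substrate added.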
Consider `COCCCn1c([C@@H]2CCCN(C(=O)C[C@H](N)CNS(=O)(=O)c3ccccc3OC)C2)nc2ccccc21` [Compound 324, N-((S)-2-amino-4-((R)-3-(1-(3-methoxypropyl)-1H-benzo[d]imidazol-2-yl)piperidin-1-yl)-4-oxobutyl)-2-methoxybenzenesulfonamide], for which the IC50 was more than 1000 nM. The figure for `COCCCn1c([C@@H]2CCCN(C(=O)C[C@H](N)CNC(=O)c3ccco3)C2)nc2ccccc21` [Compound 325, N-((S)-2-amino-4-((R)-3-(1-(3-methoxypropyl)-1H-benzo[d]imidazol-2-yl)piperidin-1-yl)-4-oxobutyl)furan-2-carboxamide] is more than 1000 nM; for `COCCCn1c([C@@H]2CCCN(C(=O)C[C@H](N)CNC(=O)C3CCCCC3)C2)nc2ccccc21` [Compound 326, N-((S)-2-amino-4-((R)-3-(1-(3-methoxypropyl)-1H-benzo[d]imidazol-2-yl)piperidin-1-yl)-4-oxobutyl)cyclohexanecarboxamide] it is more than 1000 nM. The figure for `COCCCn1c([C@@H]2CCCN(C(=O)C[C@H](N)CNC(=O)c3ccccc3OC)C2)nc2ccccc21` [Compound 327, N-((S)-2-amino-4-((R)-3-(1-(3-methoxypropyl)-1H-benzo[d]imidazol-2-yl)piperidin-1-yl)-4-oxobutyl)-2-methoxybenzamide] is more than 1000 nM; for `COCCCn1c([C@@H]2CCCN(C(=O)C[C@H](N)CNC(=O)N3CCOCC3)C2)nc2ccccc21` [Compound 328, N-((S)-2-amino-4-((R)-3-(1-(3-methoxypropyl)-1H-benzo[d]imidazol-2-yl)piperidin-1-yl)-4-oxobutyl)morpholine-4-carboxamide] it is more than 1000 nM; for `COCCCn1c([C@@H]2CCCN(C(=O)C[C@H](N)CNC(=O)Nc3ccccc3C(=O)OC)C2)nc2ccccc21` [Compound 329, methyl 2-(3-((S)-2-amino-4-((R)-3-(1-(3-methoxypropyl)-1H-benzo[d]imidazol-2-yl)piperidin-1-yl)-4-oxobutyl)ureido)benzoate] it is more than 1000 nM. Next, `CCOC(=O)c1ccccc1NC(=O)NC[C@@H](N)CC(=O)N1CCC[C@@H](c2nc3ccccc3n2CCCOC)C1` [Compound 330, ethyl 2-(3-((S)-2-amino-4-((R)-3-(1-(3-methoxypropyl)-1H-benzo[d]imidazol-2-yl)piperidin-1-yl)-4-oxobutyl)ureido)benzoate]: more than 1000 nM; `COCCCn1c([C@@H]2CCCN(C(=O)C[C@H](N)CNC(=O)C3CCCC3)C2)nc2ccccc21` [Compound 331, N-((S)-2-amino-4-((R)-3-(1-(3-methoxypropyl)-1H-benzo[d]imidazol-2-yl)piperidin-1-yl)-4-oxobutyl)cyclopentanecarboxamide]: more than 1000 nM. On to `COCCCn1c([C@@H]2CCCN(C(=O)C[C@H](N)CNC(=O)NC3CCCC3)C2)nc2ccccc21` [Compound 332, 1-((S)-2-amino-4-((R)-3-(1-(3-methoxypropyl)-1H-benzo[d]imidazol-2-yl)piperidin-1-yl)-4-oxobutyl)-3-cyclopentylurea], for which the IC50 was more than 1000 nM. With `COCCCn1c([C@@H]2CCCN(C(=O)C[C@H](N)CNC(=O)C(C)C)C2)nc2ccccc21` [Compound 333, N-((S)-2-amino-4-((R)-3-(1-(3-methoxypropyl)-1H-benzo[d]imidazol-2-yl)piperidin-1-yl)-4-oxobutyl)isobutyramide], the IC50 is more than 1000 nM. Next, `COCCCn1c([C@@H]2CCCN(C(=O)C[C@H](N)CNC(=O)N3CCCC3)C2)nc2ccccc21` [Compound 334, N-((S)-2-amino-4-((R)-3-(1-(3-methoxypropyl)-1H-benzo[d]imidazol-2-yl)piperidin-1-yl)-4-oxobutyl)pyrrolidine-1-carboxamide]: more than 1000 nM.

Turning to `COCCCn1c([C@@H]2CCCN(C(=O)[C@@H]3CN(S(=O)(=O)c4ccc5c(c4)OCCO5)C[C@H]3N)C2)nc2ccccc21` [Compound 337, ((3R,4S)-4-amino-1-(2,3-dihydrobenzo[b][1,4]dioxin-6-ylsulfony)pyrrolidin-3-yl)((R)-3-(1-(3-methoxypropyl)-1H-benzo[d]imidazol-2-yl)piperidin-1-yl)methanone], the IC50 was more than 1000 nM.

Turning to `COCCCn1c([C@@H]2CCCN(C(=O)[C@@H]3CN(S(=O)(=O)c4ccc5[nH]c(=O)[nH]c5c4)C[C@H]3N)C2)nc2ccccc21` [Compound 338], the IC50 was less than 100 nM.

Turning to `COCCCn1c([C@@H]2CCCN(C(=O)[C@@H]3CN(S(=O)(=O)c4c(Cl)cc(Br)cc4Cl)C[C@H]3N)C2)nc2ccccc21` [Compound 339], the 50% inhibitory concentration (IC50) lay in the range of 100 to 1000 nM. On to `COCCCn1c([C@@H]2CCCN(C(=O)[C@@H]3CN(S(=O)(=O)c4c(Cl)cc(Cl)cc4Cl)C[C@H]3N)C2)nc2ccccc21` [Compound 340, ((3R,4S)-4-amino-1-(2,4,6-trichlorophenylsulfonyl)pyrrolidin-3-yl)((R)-3-(1(3-methoxypropyl)-1H-benzo[d]imidazol-2-yl)piperidin-1-yl)methanone], for which the IC50 lay within 100 to 1000 nM. The figure for `COCCCn1c([C@@H]2CCCN(C(=O)[C@@H]3CN(S(=O)(=O)c4ccc5ccccc5c4)C[C@H]3N)C2)nc2ccccc21` [Compound 341, ((3R,4S)-4-amino-1-(naphthalen-2-ylsulfonyl)pyrrolidin-3-yl)((R)-3-(1-(3-methoxypropyl)-1H-benzo[d]imidazol-2-yl)piperidin-1-yl)methanone] is 100 to 1000 nM; for `COCCCn1c([C@@H]2CCCN(C(=O)[C@@H]3CN(S(=O)(=O)c4ccc(Br)cc4Cl)C[C@H]3N)C2)nc2ccccc21` [Compound 342, ((3R,4S)-4-amino-1-(4-bromo-2-chlorophenylsulfonyl)pyrrolidin-3-yl)((R)-3-(1-(3-methoxypropyl)-1H-benzo[d]imidazol-2-yl)piperidin-1-yl)methanone] it is 100 to 1000 nM. Next, `COCCCn1c([C@@H]2CCCN(C(=O)[C@@H]3CN(S(=O)(=O)c4cc(Cl)ccc4Cl)C[C@H]3N)C2)nc2ccccc21` [Compound 343, ((3R,4S)-4-amino-1-(2,5-dichlorophenylsulfonyl)pyrrolidin-3-yl)((R)-3-(1-(3-methoxypropyl)-1H-benzo[d]imidazol-2-yl)piperidin-1-yl)methanone]: 100 to 1000 nM. Next, `COCCCn1c([C@@H]2CCCN(C(=O)[C@@H]3CN(S(=O)(=O)c4cc(C)c(Cl)cc4C)C[C@H]3N)C2)nc2ccccc21` [Compound 344, ((3R,4S)-4-amino-1-(4-chloro-2,5-dimethylphenylsulfonyl)pyrrolidin-3-yl)((R)-3-(1-(3-methoxypropyl)-1H-benzo[d]imidazol-2-yl)piperidin-1-yl)methanone]: 100 to 1000 nM. For `COCCCn1c([C@@H]2CCCN(C(=O)[C@@H]3CN(S(=O)(=O)c4cc(Cl)c(Cl)cc4Cl)C[C@H]3N)C2)nc2ccccc21` [Compound 345, ((3R,4S)-4-amino-1-(2,4,5-trichlorophenylsulfonyl)pyrrolidin-3-yl)((R)-3-(1-(3-methoxypropyl)-1H-benzo[d]imidazol-2-yl)piperidin-1-yl)methanone], the IC50 was in the range of 100 to 1000 nM. Next, `COCCCn1c([C@@H]2CCCN(C(=O)[C@@H]3CN(S(=O)(=O)c4ccccc4Cl)C[C@H]3N)C2)nc2ccccc21` [Compound 346, ((3R,4S)-4-amino-1-(2-chlorophenylsulfonyl)pyrrolidin-3-yl)((R)-3-(1-(3-methoxypropyl)-1H-benzo[d]imidazol-2-yl)piperidin-1-yl)methanone]: 100 to 1000 nM. `COCCCn1c([C@@H]2CCCN(C(=O)[C@@H]3CN(S(=O)(=O)c4c(Cl)cccc4Cl)C[C@H]3N)C2)nc2ccccc21` [Compound 347, ((3R,4S)-4-amino-1-(2,6-dichlorophenylsulfonyl)pyrrolidin-3-yl)((R)-3-(1-(3-methoxypropyl)-1H-benzo[d]imidazol-2-yl)piperidin-1-yl)methanone]: the IC50 is 100 to 1000 nM. The figure for `COCCCn1c([C@@H]2CCCN(C(=O)[C@@H]3CN(S(=O)(=O)c4ccc(-c5ccccc5)cc4)C[C@H]3N)C2)nc2ccccc21` [Compound 348, ((3R,4S)-4-amino-1-(biphenyl-4-ylsulfonyl)pyrrolidin-3-yl)((R)-3-(1-(3-methoxypropyl)-1H-benzo[d]imidazol-2-yl)piperidin-1-yl)methanone] is 100 to 1000 nM; for `COCCCn1c([C@@H]2CCCN(C(=O)[C@@H]3CN(S(=O)(=O)c4ccc(F)cc4Cl)C[C@H]3N)C2)nc2ccccc21` [Compound 349, ((3R,4S)-4-amino-1-(2-chloro-4-fluorophenylsulfonyl)pyrrolidin-3-yl)((R)-3-(1-(3-methoxypropyl)-1H-benzo[d]imidazol-2-yl)piperidin-1-yl)methanone] it is 100 to 1000 nM. The figure for `COCCCn1c([C@@H]2CCCN(C(=O)[C@@H]3CN(S(=O)(=O)c4ccc(Cl)cc4Cl)C[C@H]3N)C2)nc2ccccc21` [Compound 350, ((3R,4S)-4-amino-1-(2,4-dichlorophenylsulfonyl)pyrrolidin-3-yl)((R)-3-(1-(3-methoxypropyl)-1H-benzo[d]imidazol-2-yl)piperidin-1-yl)methanone] is 100 to 1000 nM; for `COCCCn1c([C@@H]2CCCN(C(=O)[C@@H]3CN(S(=O)(=O)c4cccc(Cl)c4)C[C@H]3N)C2)nc2ccccc21` [Compound 351, ((3R,4S)-4-amino-1-(3-chlorophenylsulfonyl)pyrrolidin-3-yl)((R)-3-(1-(3-methoxypropyl)-1H-benzo[d]imidazol-2-yl)piperidin-1-yl)methanone] it is 100 to 1000 nM.

Values taken from patent publication US8138168B1 (Takeda Pharmaceutical Company Limited, priority 2007, dated 2012).
